In this assay the test system is P388. As to the kind of experiment: Cytotoxicity against mouse P388 cells. Type of assay: functional.
The compound `CONCCCCCCCCCCCCc1cccnc1` [HACHIJODINE A] gave an Activity of 2.2 µg/mL.

With `CONCCC(C)CCCCCCCCCc1cccnc1` (configuration not stated) [HACHIJODINE B], the Activity is 2.2 µg/mL.

`CONCC(C)CCCCCCCCCCc1cccnc1` (configuration not stated) [HACHIJODINE C] displayed an Activity of 2.2 µg/mL.

Consider `CONCCCCCCCCCCC(C)Cc1cccnc1` (configuration not stated) [HACHIJODINE D], for which the Activity came out at 2.2 µg/mL.

`CN(O)CCCCCCCCCCCCCc1cccnc1` [HACHIJODINE E] came in with an Activity of 2.3 µg/mL.

`CN(O)CCCCCCCCC#CCCCCc1cccnc1` [HACHIJODINE F] displayed an Activity of 1 µg/mL.

The compound `CN(O)CCCCCCCC/C=C\C#CCCCCc1cccnc1` [HACHIJODINE G] gave an Activity of 1 µg/mL.

The values above are taken from ChEMBL document CHEMBL1154584, “Hachijodines A-G: seven new cytotoxic 3-alkylpyridine alkaloids from two marine sponges of the genera Xestospongia and amphimedon” (2000).
